The structures appear in SMILES notation.

This test deals with T1, RORc ligand binding domain (Homo sapiens, UniProt P51449).
T1 construct: host or cells: E. coli
T1 sequence (P51449 269-508 limits assumed): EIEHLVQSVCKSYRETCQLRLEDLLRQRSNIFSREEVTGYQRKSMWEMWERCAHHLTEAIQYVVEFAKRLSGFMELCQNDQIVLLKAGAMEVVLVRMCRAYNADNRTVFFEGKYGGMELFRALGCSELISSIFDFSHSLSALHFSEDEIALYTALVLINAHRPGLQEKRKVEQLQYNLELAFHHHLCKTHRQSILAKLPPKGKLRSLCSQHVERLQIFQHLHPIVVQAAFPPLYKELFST
Nature of the test: In vitro RORc ligand binding assay (25-[3H]hydroxycholesterol displacement, filter binding). How it is done: This assay was used to determine a compound's potency in inhibiting activity of RORc by determining, Kiapp, IC50, or percent inhibition values.
On day of the assay, 100 uL of 0.05% CHAPS (in deionized H2O) was added to all wells of the GFB Unifilter plate and allowed soak for 1 h. A wash buffer of 50 mM HEPES (pH 7.4), 150 mM NaCl, and 5 mM MgCl2 was prepared to wash the filter plate. To prepare an assay buffer, BSA was added to the wash buffer to reach 0.01% and DTT was added to reach 1 mM.
The 20× compound stocks were diluted in DMSO with Assay Buffer 4-fold to reach 5× the final test concentration in 25% DMSO (10 uL compound+30 uL Assay Buffer). Solutions were mixed by aspiration several times with a pipette set on 50 uL volume. For the assay, 10 uL of 5× compound stock solutions in 25% DMSO were added to the assay plate in duplicate.
For two point screening, 10 mM stock compound solutions were diluted in DMSO to obtain 200 uM (20× the high test concentration) and then diluted 10-fold further to reach 20 uM (20× the low test concentration). The 20× stocks were diluted 4-fold with Assay Buffer (10 uL compound+30 uL Assay Buffer) to reach 5× the test concentrations (50 uM and 5 uM) and 10 uL were added to two assay plates for the duplicate wells. With each concentration tested on 2 plates, each set of 80 compounds used 4 assay plates (1 uM and 10 uM, with n=2).
For 25-hydroxycholesterol in 25% DMSO/75% Assay Buffer; 10 uL per well was used for NSB samples. Wells for Total Binding and No Receptor sample determination contained 10 uL of 25% DMSO/75% Assay Buffer per well.
Add 20 uL to all wells to reach 6 nM final concentration in the assay.
Stock receptor solution was diluted in assay buffer to obtain 1.5 ug/mL in Assay Buffer. 20 uL was added to all wells. For No Receptor samples, 20 uL Assay Buffer was substituted for receptor solution.
Assay plates were 96-well polypropylene V-bottom plates. 10 uL of 5× compound in 25% DMSO/75% Assay Buffer was added to Test wells. 10 uL of 25% DMSO/75% Assay Buffer was added to Total Binding or No Receptor wells. 10 uL of 5 uM 25-hydroxycholesterol in 25% DMSO/75% Assay Buffer was added to NSB wells. […] 20 uL of 1.5 ug/mL RORc receptor was added to wells (or 40 uL Assay Buffer to No R wells). Following addition to the wells, the plates were incubated 3 h at 25° C.
Using a Packard Filtermate Harvester, the filter plate were washed 4 times following transfer of the incubated samples. Plates were dry-filtered completely (2 h at 50° C. or overnight at room temperature). 50 uL Microscint 0 was added to all wells and read on Topcount protocol Inverted.

The term IC50 denotes the concentration at which inhibition is half-maximal. Read a low IC50 as greater potency. `CC[C@@H](O[C@@]12CC[C@@H](c3cc(-c4c(F)cccc4F)nnc31)C2(C)C)C(=O)NCCS(C)(=O)=O` [Compound 102, (R)-2-(((5S,8R)-3-(2,6-difluorophenyl)-9,9-dimethyl-5,6,7,8-tetrahydro-5,8-methanocinnolin-8-yl)oxy)-N-(2-(methylsulfonyl)ethyl)butanamide] yielded a half-maximal inhibitory concentration (IC50) of 0.0615 µM.
Regarding `CC1(C)[C@H]2CC[C@]1([C@H]1CN(CC(F)F)CCO1)c1nnc(-c3c(F)cccc3F)cc12` [Compound 80, (S)-4-(2,2-difluoroethyl)-2-((5R,8R)-3-(2,6-difluorophenyl)-9,9-dimethyl-5,6,7,8-tetrahydro-5,8-methanocinnolin-8-yl)morpholine], the IC50 came out at 0.674 µM.
As for `CC1(C)[C@H]2CC[C@]1([C@H]1CCCN(c3ccncn3)C1)c1nnc(-c3c(F)cccc3F)cc12` [Compound 164, 5-(2,6-difluorophenyl)-11,11-dimethyl-1-(1-pyrimidin-4-yl-3-piperidyl)-3,4-diazatricyclo[6.2.1.02,7]undeca-2,4,6-triene], the figure is 0.02 µM; as for `CC1(C)[C@H]2CC[C@]1(OS(=O)(=O)C(F)(F)F)c1nnc(-c3c(F)cccc3F)cc12` [Compound 6, (5S,8R)-3-(2,6-difluorophenyl)-9,9-dimethyl-5,6,7,8-tetrahydro-5,8-methanocinnolin-8-yl trifluoromethanesulfonate], 0.006 µM; as for `CC[C@@H](O[C@@]12CC[C@@H](c3cc(-c4c(F)cccc4F)nnc31)C2(C)C)c1n[nH]c(CO)n1` [Compound 39, (3-((R)-1-(((5S,8R)-3-(2,6-difluorophenyl)-9,9-dimethyl-5,6,7,8-tetrahydro-5,8-methanocinnolin-8-yl)oxy)propyl)-1H-1,2,4-triazol-5-yl)methanol], 0.827 µM.
For the compound `CC1(C)[C@H]2CC[C@]1(c1nnc(C(N)=O)o1)c1nnc(-c3c(F)cccc3F)cc12` [Compound 2, 5-((5R,8R)-3-(2,6-difluorophenyl)-9,9-dimethyl-5,6,7,8-tetrahydro-5,8-methanocinnolin-8-yl)-1,3,4-oxadiazole-2-carboxamide], the IC50 amounted to 0.52 µM.
`CC1(C)[C@H]2CC[C@]1([C@@H]1CN(CC(F)F)CCO1)c1nnc(-c3c(F)cccc3F)cc12` [Compound 83, (R)-4-(2,2-difluoroethyl)-2-((5R,8R)-3-(2,6-difluorophenyl)-9,9-dimethyl-5,6,7,8-tetrahydro-5,8-methanocinnolin-8-yl)morpholine] returned an IC50 of 0.356 µM.
Turning to `CC1(C)[C@H]2CC[C@]1(OC1(CC(N)=O)CC1)c1nnc(-c3c(F)cccc3F)cc12` [Compound 46, 2-(1-(((5S,8R)-3-(2,6-difluorophenyl)-9,9-dimethyl-5,6,7,8-tetrahydro-5,8-methanocinnolin-8-yl)oxy)cyclopropyl)acetamide], the IC50 was 0.0748 µM.
For `Cc1cc(O[C@@]23CC[C@@H](c4cc(-c5c(F)cccc5F)nnc42)C3(C)C)ccn1` [Compound 25, (5S,8R)-3-(2,6-difluorophenyl)-9,9-dimethyl-8-((2-methylpyridin-4-yl)oxy)-5,6,7,8-tetrahydro-5,8-methanocinnoline], the IC50 is 0.844 µM.
To `CC1(C)[C@H]2CC[C@]1(OC(=O)N1CCC1)c1nnc(-c3c(F)cccc3F)cc12` [Compound 10, (5S,8R)-3-(2,6-difluorophenyl)-9,9-dimethyl-5,6,7,8-tetrahydro-5,8-methanocinnolin-8-yl azetidine-1-carboxylate] belongs 0.353 µM; to `CC[C@@H](O[C@@]12CC[C@@H](c3cc(-c4c(F)cccc4F)nnc31)C2(C)C)C(=O)NNC(C)=O` [Compound 58, (R)-N′-acetyl-2-(((5S,8R)-3-(2,6-difluorophenyl)-9,9-dimethyl-5,6,7,8-tetrahydro-5,8-methanocinnolin-8-yl)oxy)butanehydrazide], 0.105 µM.
The compound `CC[C@@H](O[C@@]12CC[C@@H](c3cc(-c4c(F)cccc4F)nnc31)C2(C)C)C(=O)N1CCCOCC1` [Compound 101, (R)-2-(((5S,8R)-3-(2,6-difluorophenyl)-9,9-dimethyl-5,6,7,8-tetrahydro-5,8-methanocinnolin-8-yl)oxy)-1-(1,4-oxazepan-4-yl)butan-1-one] showed an IC50 of 0.148 µM.
As for `Cc1n[nH]c(C(=O)N2CCC[C@H]([C@@]34CC[C@@H](c5cc(-c6c(F)cccc6F)nnc53)C4(C)C)C2)n1` [Compound 129, [3-[5-(2,6-difluorophenyl)-11,11-dimethyl-3,4-diazatricyclo[6.2.1.02,7]undeca-2,4,6-trien-1-yl]-1-piperidyl]-(3-methyl-1H-1,2,4-triazol-5-yl)methanone], the figure is 0.083 µM; as for `CCC[C@H](O[C@@]12CC[C@@H](c3cc(-c4c(F)cccc4F)nnc31)C2(C)C)C(N)=O` [Compound 50, (S)-2-(((5S,8R)-3-(2,6-difluorophenyl)-9,9-dimethyl-5,6,7,8-tetrahydro-5,8-methanocinnolin-8-yl)oxy)pentanamide], 0.2 µM.
Regarding `CC1(C)[C@H]2CC[C@]1(Oc1cnccn1)c1nnc(-c3c(F)cccc3F)cc12` [Compound 11, (5S,8R)-3-(2,6-difluorophenyl)-9,9-dimethyl-8-(pyrazin-2-yloxy)-5,6,7,8-tetrahydro-5,8-methanocinnoline], the IC50 is 0.0799 µM.
As to `CC1(C)[C@H]2CC[C@]1(Oc1ccc(=O)[nH]c1)c1nnc(-c3c(F)cccc3F)cc12` [Compound 33, 5-(((5S,8R)-3-(2,6-difluorophenyl)-9,9-dimethyl-5,6,7,8-tetrahydro-5,8-methanocinnolin-8-yl)oxy)pyridin-2(1H)-one], the IC50 is 0.12 µM.
`CC1(C)[C@H]2CC[C@]1([C@@H]1CN(Cc3ccccc3)CCO1)c1nnc(-c3c(F)cccc3F)cc12` [Compound 60, (R)-4-benzyl-2-((5R,8R)-3-(2,6-difluorophenyl)-9,9-dimethyl-5,6,7,8-tetrahydro-5,8-methanocinnolin-8-yl)morpholine] had an IC50 of 0.317 µM. This IC50 lies about 2.6-fold higher than the previous one.
For the compound `CCOC(=O)c1cn2c([C@@]34CC[C@@H](c5cc(-c6c(F)cccc6F)nnc53)C4(C)C)cccc2n1` [Compound 108, ethyl 5-((5R,8S)-3-(2,6-difluorophenyl)-9,9-dimethyl-5,6,7,8-tetrahydro-5,8-methanocinnolin-8-yl)imidazo[1,2-a]pyridine-2-carboxylate], the IC50 amounted to 0.096 µM. Against the preceding compound, the IC50 is about 3.3-fold lower.
`CC(C)(O)CNC(=O)CO[C@@]12CC[C@@H](c3cc(-c4c(F)cccc4F)nnc31)C2(C)C` [Compound 48, 2-(((5S,8R)-3-(2,6-difluorophenyl)-9,9-dimethyl-5,6,7,8-tetrahydro-5,8-methanocinnolin-8-yl)oxy)-N-(2-hydroxy-2-methylpropyl)acetamide] showed an IC50 of 0.0952 µM.
In the case of `CNC(=O)c1nnc([C@@]23CC[C@@H](c4cc(-c5c(F)cccc5F)nnc42)C3(C)C)o1` [Compound 3, 5-((5R,8R)-3-(2,6-difluorophenyl)-9,9-dimethyl-5,6,7,8-tetrahydro-5,8-methanocinnolin-8-yl)-N-methyl-1,3,4-oxadiazole-2-carboxamide], the IC50 amounted to 0.283 µM.
Turning to `C[C@@H](O)CNC(=O)N1CCC[C@H]([C@@]23CC[C@@H](c4cc(-c5c(F)cccc5F)nnc42)C3(C)C)C1` [Compound 154, 3-[5-(2,6-difluorophenyl)-11,11-dimethyl-3,4-diazatricyclo[6.2.1.02,7]undeca-2,4,6-trien-1-yl]-N-(2-hydroxypropyl)piperidine-1-carboxamide], the IC50 was determined as 0.015 µM.
`CC[C@@H](O[C@]12CC[C@H](c3cc(-c4c(F)cccc4F)nnc31)C2(C)C)C(=O)O` [Compound 113, (2R)-2-[[(1S,8R)-5-(2,6-difluorophenyl)-11,11-dimethyl-3,4-diazatricyclo[6.2.1.02,7]undeca-2,4,6-trien-1-yl]oxy]butanoic acid] yielded an IC50 of 0.047 µM. This IC50 lies about 3.1-fold higher than the previous one.

(Values after US9994551B2, “Pyridazine derivatives as RORc modulators” (Genentech, Inc., priority 2015, dated 2018).)
